# Reference: US20250312474A1, “ANTHRACYCLINS AND CONJUGATES THEREOF” (priority 2022, published 2025)
# Read-outs that look alike come from different tables or passages of the source.
# Key:
# [1] = test system: JIMT-1 cells; test: In vitro cytotoxicity of free payloads (resazurin cell viability, 3 days); type: cell-based, human; details: for IC50 JIMT-1 (HER2 1+): free payload, 3 days incubation, 10 pM to 100 nM; for IC50: Homo sapiens, JIMT-1, 72 h, read-out: IC50 JIMT-1 (HER2 1+)
# Experimental: (§1) SK-OV-3, NCI-N87, JIMT-1 and MDA-MB-231 cells were plated in 96-well plates (5000 cells/well) in RPMI-1640 GlutaMAX (Invitrogen) supplemented with 10% fetal bovine serum (FBS) (Invitrogen, 150 μL/well) and incubated overnight in a humidified atmosphere at 37° C. and 5% CO2. Compounds 6a, 6b, 6c, 6d and 6e were added in triplo in a square root of 10-fold dilution series to obtain a final concentration ranging from 1 pM to 10 nM (for SK-OV-3 and NCI-N87) or 10 pM to 100 nM (for JIMT-1 and MDA-MB-231) and a final volume of 200 μL/well. The cells were incubated for 3 days in a humidified atmosphere at 37° C. and 5% CO2. The culture medium was replaced by 0.01 mg/mL resazurin (Sigma Aldrich) in RPMI-1640 GlutaMAX supplemented with 10% FBS (200 μL/well). After 4 hours in a humidified atmosphere at 37° C. and 5% CO2 the fluorescence was detected with a fluorescence plate reader (Infinite® M1000 Tecan) at 560 nm excitation and 590 nm emission. The relative fluorescent units (RFU) were normalized to cell viability percentage by setting wells without cells at 0% viability and wells with untreated cells at 100% viability. Viability was plotted using Graphpad prism software (see FIG. 20).
# [2] = test system: MDA-MB-231 cells; test: as above; type: cell-based; details: for IC50 MDA-MB-231 (HER2−): free payload, 3 days incubation, 10 pM to 100 nM; for IC50: Homo sapiens, MDA-MB-231, 72 h, read-out: IC50 MDA-MB-231 (HER2−)
# Experimental: as §1
# [3] = test system: SK-OV-3 cells; test: as above; type: cell-based; details: Homo sapiens, SK-OV-3, 72 h, read-out: IC50 SK-OV-3 (HER2 3+)
# Experimental: as §1
# [4] = test system: NCI-N87 cells; test: as above; type: cell-based; details: Homo sapiens, NCI-N87, 72 h, read-out: IC50 NCI-N87 (HER2 3+)
# Experimental: as §1, with “Compounds 6a, 6b, 6c, 6d and 6e were added in triplo in a square root of 10-fold dilution series to obtain a final concentration ranging from 1 pM to 10 nM (for SK-OV-3 and NCI-N87) or 10 pM to 100 nM (for JIMT-1 and MDA-MB-231) and a final volume of 200 μL/well.” left out
# [5] = more potent than doxorubicin; cited from earlier work
# [6] = test system: preclinical models; details: cited from earlier work
# [7] = free payload, 3 days incubation, 1 pM to 10 nM
SMILES,IC50 JIMT-1 (HER2 1+) [1],IC50 MDA-MB-231 (HER2−) [2],IC50 [3],IC50 [4],IC50 [1],IC50 [2],"IC50 [4, 7]","IC50 [3, 7]",potency relative to doxorubicin [5],MED [6]
COc1cccc2c1C(=O)c1c(O)c3c(c(O)c1C2=O)C[C@@](O)(C(=O)CO)C[C@@H]3O[C@H]1C[C@H]2[C@H](O[C@@H]3[C@@H](OCCN=[N+]=[N-])OCCN32)[C@H](C)O1 [Compound 6b],no accurate IC50 value could be calculated,no accurate IC50 value could be calculated,0.099 nM,–,–,–,–,–,–,–
COc1cccc2c1C(=O)c1c(O)c3c(c(O)c1C2=O)C[C@@](O)(C(=O)CO)C[C@@H]3O[C@H]1C[C@H]2[C@H](O[C@@H]3[C@@H](OC(C)C)OCCN32)[C@H](C)O1 [Compound 6c],–,–,0.187 nM,0.416 nM,0.159 nM,0.174 nM,–,–,–,–
"COc1cccc2c1C(=O)c1c(O)c3c(c(O)c1C2=O)C[C@@](O)(C(=O)CO)C[C@@H]3O[C@H]1C[C@H]2[C@H](O[C@@H]3[C@@H](OC)OCCN32)[C@H](C)O1 [Compound 6a, reference compound]",no accurate IC50 value could be calculated,no accurate IC50 value could be calculated,–,–,–,–,0.085 nM,0.028 nM,–,–
"COc1cccc2c1C(=O)c1c(O)c3c(c(O)c1C2=O)C[C@@](O)(C(=O)CO)C[C@@H]3O[C@H]1C[C@H]2[C@H](O[C@@H]3[C@@H](OC)OCCN32)[C@H](C)O1 [PNU-159,682]",–,–,–,–,–,–,–,–,> 1000 ×,0.033 mg/kg
COc1cccc2c1C(=O)c1c(O)c3c(c(O)c1C2=O)C[C@@](O)(C(=O)CO)C[C@@H]3O[C@H]1C[C@H]2[C@H](O[C@@H]3[C@@H](OCc4ccc(N=[N+]=[N-])cc4)OCCN32)[C@H](C)O1 [Compound 6e],–,–,0.845 nM,0.795 nM,0.52 nM,0.705 nM,–,–,–,–
COc1cccc2c1C(=O)c1c(O)c3c(c(O)c1C2=O)C[C@@](O)(C(=O)CO)C[C@@H]3O[C@H]1C[C@H]2[C@H](O[C@@H]3[C@@H](OCc4ccccc4)OCCN32)[C@H](C)O1 [Compound 6d],–,–,0.217 nM,0.339 nM,0.259 nM,0.169 nM,–,–,–,–
